For the data set, the system named is VEGFR2. Put plainly: EC50 of VEGFR2 siRNA candidates before and after modification, knockdown in cells. It is filed as cell-based, human. To be noted: for EC50: 24 h, 24well; for knockdown effect of the modified sequence compared with unmodified: PANC-1 and MDA-MB-231 cells. Here is the method:
MDA-MB-231 and U87 cells were seeded in 24-well cell plates (1 × 10^5/well), and then siRNAs (21mer or 25mer or negative control) were transfected with commercial transfection reagent (lipo2000), and the siRNA transfection concentration was 100 nM. Meanwhile, untreated cells were set as blank control. Total RNA was extracted from cells 24 h after transfection. Reverse transcription was performed using the kit to obtain cDNA according to the manufacturer’s instructions. Relative levels of target gene VEGFR2 mRNA expression were determined by real-time PCR, normalized to the housekeeping gene β-actin. Gene knockdown effectiveness was expressed as a percentage of the blank control. […] VEGFR2-21-h1#, VEGFR2-21-h2#, VEGFR2-21-h5#, VEGFR2-21-h7#, VEGFR2-21-hm17#, VEGFR2-21-hm18#, VEGFR2-25-h3#, and VEGFR2- 25-h4# were selected and modified as indicated in Table 3 (SEQ ID Nos. 109-124).
The EC50 of candidate sequences before and after modification in different cells (MDA-MB-231, U87-MG and PANC-1) were compared. MDA-MB-231, PANC-1 and U87-MG cells were seeded in 24-well cell plates (1 × 10^5/well), and siRNA candidates (modified or unmodified) were transfected with multiple concentration gradients in different cells. Use the same procedure as the primary screen. Finally, the data were plotted using the software GraphPad Prism8 and EC50 values were calculated.

The mark [1] stands for this setting: MD-MB-231 cells, read-out: EC50 (nM, 24 h, 24well) Breast cancer MD-MB-231.
Where [2] appears, read: PANC-1 cells, read-out: EC50 (nM, 24 h, 24well) Pancreatic cancer PANC-1.
Where [3] appears, read: U87-MG cells, read-out: EC50 (nM, 24 h, 24well) Brain cancer U87-MG.

The source of these data is US20230323358A1, “COMPOSITION AND USE OF siRNAs AGAINST VEGFR2 AND TGF-BETA1 IN COMBINATION THERAPY FOR CANCER” (Sirnaomics, Inc., priority 2021, published 2023).

Where two headings read alike, the source gives them in different places. Oligonucleotides are written 5' to 3', each unit as a sugar letter and its base; * is a phosphorothioate linkage, no mark a phosphodiester; rarer units and linkages stand in square brackets, end groups in braces. Plain capitals give the bases only. {P} = phosphorylation (indicated by P); d = 2'-deoxy (DNA); m = 2'-O-methyl; r = 2'-OH (RNA); f = 2'-fluoro

By EC50 is commonly meant the concentration giving half of the maximal effect. Consider “VEGFR2-21-h1#: siRNA targeting VEGFR2 mRNA; sense SEQ ID 60, antisense SEQ ID 103 (sense GCCUAGUGUUUCUCUUGAUTT; antisense AUCAAGAGAAACACUAGGCTT; sugars from the 5' end r19 d2, backbone not given here)”, for which the “knockdown effect of the modified sequence compared with unmodified” value (“knockdown effect … compared with unmodified” for short) is reported as “better than that of unmodified”. Moreover, under setting [1], the EC50 stood at 0.2 nM. Besides, the EC50 under setting [2] stood at 0.92 nM. Further, the EC50 under setting [3] is 1.25 nM.

As to “VEGFR2-21-h1#mod: Modified (2′F, 2′OME, phosphorylation) siRNA targeting VEGFR2; sense SEQ ID 131, antisense SEQ ID 139 (sense mGmCmCmUmAmGfUfGfUmUmUmCmUmCmUmUmGmAmUdTdT; antisense {P}-mAfUmCmAmAmGmAmGmAmAmAmCmAfCmUmAmGmGmCdTdT)”, the EC50 runs as follows: under setting [1], 0.23 nM; under setting [2], 0.07 nM; under setting [3], 0.99 nM.

As for “VEGFR2-21-h2#: siRNA targeting VEGFR2 mRNA; sense SEQ ID 61, antisense SEQ ID 104 (sense GGUCCAUUUCAAAUCUCAATT; antisense UUGAGAUUUGAAAUGGACCTT; sugars from the 5' end r19 d2, backbone not given here)”, the “knockdown effect … compared with unmodified” value is on record as “better than that of unmodified”. Further, under setting [1], the 50% effective concentration (EC50) is 0.72 nM. Under setting [2], the EC50 was determined as 0.36 nM. Also, under setting [3], the EC50 worked out at 10.7 nM.

Consider “VEGFR2-21-h2#mod: Modified (2′F, 2′OME, phosphorylation) siRNA targeting VEGFR2; sense SEQ ID 132, antisense SEQ ID 140 (sense mGmGmUmCmCmAfUfUfUmCmAmAmAmUmCmUmCmAmAdTdT; antisense {P}-mUfUmGmAmGmAmUmUmUmGmAmAmAfUmGmGmAmCmCdTdT)”, for which the EC50 is 0.14 nM under setting [1], 0.08 nM under setting [2] and 2.42 nM under setting [3].

“VEGFR2-21-h5#: siRNA targeting VEGFR2 mRNA; sense SEQ ID 64, antisense SEQ ID 107 (sense GCAUCAGCAUAAGAAACUUTT; antisense AAGUUUCUUAUGCUGAUGCTT; sugars from the 5' end r19 d2, backbone not given here)”: the “knockdown effect … compared with unmodified” value is “better than that of unmodified”. Under setting [1], the 50% effective concentration (EC50) was found to be 0.4 nM. The EC50 under setting [2] was found to be 0.51 nM. The EC50 under setting [3] was 25.5 nM.

On to “VEGFR2-21-h5#mod: Modified (2′F, 2′OME, phosphorylation) siRNA targeting VEGFR2; sense SEQ ID 137, antisense SEQ ID 145 (sense mGmCmAmUmCmAfGfCfAmUmAmAmGmAmAmAmCmUmUdTdT; antisense {P}-mAfAmGmUmUmUmCmUmUmAmUmGmCfUmGmAmUmGmCdTdT)”, for which the EC50 was 0.01 nM under setting [1], 0.22 nM under setting [2] and 10.4 nM under setting [3].

In the case of “VEGFR2-21-h7#: siRNA targeting VEGFR2 mRNA; sense SEQ ID 66, antisense SEQ ID 109 (sense GCUGACAUGUACGGUCUAUTT; antisense AUAGACCGUACAUGUCAGCTT; sugars from the 5' end r19 d2, backbone not given here)”, the EC50 is, setting by setting: under setting [1], 1.72 nM; under setting [2], 3 nM; under setting [3], 49.5 nM.

In the case of “VEGFR2-21-h7#mod: Modified (2′F, 2′OME, phosphorylation) siRNA targeting VEGFR2; sense SEQ ID 138, antisense SEQ ID 146 (sense mGmCmUmGmAmCfAfUfGmUmAmCmGmGmUmCmUmAmUdTdT; antisense {P}-mAfUmAmGmAmCmCmGmUmAmCmAmUfGmUmCmAmGmCdTdT)”, the half-maximal effective concentration (EC50) is 51.4 nM under setting [1], 384 nM under setting [2] and 170 nM under setting [3].

As for “VEGFR2-21-hm17#: siRNA targeting VEGFR2 mRNA; sense SEQ ID 76, antisense SEQ ID 119 (sense GGACUGGCUUUGGCCCAAUTT; antisense AUUGGGCCAAAGCCAGUCCTT; sugars from the 5' end r19 d2, backbone not given here)”, the “knockdown effect … compared with unmodified” value is on record as “better than that of unmodified”. Besides, under setting [1], the half-maximal effective concentration (EC50) came out at 1.04 nM. Besides, the EC50 under setting [2] amounted to 2.09 nM. In addition, under setting [3], the EC50 amounted to 16.6 nM.

Regarding “VEGFR2-21-hm17#mod: Modified (2′F, 2′OME, phosphorylation) siRNA targeting VEGFR2; sense SEQ ID 135, antisense SEQ ID 143 (sense mGmGmAmCmUmGfGfCfUmUmUmGmGmCmCmCmAmAmUdTdT; antisense {P}-mAfUmUmGmGmGmCmCmAmAmAmGmCfCmAmGmUmCmCdTdT)”, the EC50 turned out to be 0.32 nM under setting [1], 0.25 nM under setting [2] and 312 nM under setting [3].

Consider “VEGFR2-21-hm18# mod: Modified (2′F, 2′OME, phosphorylation) siRNA targeting VEGFR2; sense SEQ ID 136, antisense SEQ ID 144 (sense mGmGmAmAmAmAfAfAfCmAmAmAmAmCmUmGmUmAmAdTdT; antisense {P}-mUfUmAmCmAmGmUmUmUmUmGmUmUfUmUmUmUmCmCdTdT)”, for which the EC50 worked out at 0.02 nM under setting [1], 0.06 nM under setting [2] and 1.57 nM under setting [3].

Turning to “VEGFR2-21-hm18#: siRNA targeting VEGFR2 mRNA; sense SEQ ID 77, antisense SEQ ID 120 (sense GGAAAAAACAAAACUGUAATT; antisense UUACAGUUUUGUUUUUUCCTT; sugars from the 5' end r19 d2, backbone not given here)”, the “knockdown effect … compared with unmodified” value was “better than that of unmodified”. Further, under setting [1], the concentration giving a half-maximal response (EC50) was 3.26 nM. The EC50 under setting [2] was 3.81 nM. Besides, the concentration for a half-maximal effect (EC50) under setting [3] stood at 3.17 nM.

Regarding “VEGFR2-25-h3#: siRNA targeting VEGFR2 mRNA; sense SEQ ID 43, antisense SEQ ID 86 (sense GACCAACAUGGAGUCGUGUACAUUA; antisense UAAUGUACACGACUCCAUGUUGGUC; RNA, backbone not given here)”, the concentration giving a half-maximal response (EC50) stood at 1.8 nM under setting [1], 0.35 nM under setting [2] and 10.9 nM under setting [3].

For “VEGFR2-25-h3#mod: Modified (2′F, 2′OME, phosphorylation) siRNA targeting VEGFR2; sense SEQ ID 133, antisense SEQ ID 141 (sense mGmAmCmCmAmAmCmAmUmGmGmAfGfUfCmGmUmGmUmAmCmAmUmUmA; antisense {P}-mUfAmAmUmGmUmAmCmAmCmGmAmCfUmCmCmAmUmGmUmUmGmGmUmC)”, the concentration giving a half-maximal response (EC50) is 1.65 nM under setting [1], 1.76 nM under setting [2] and 1090 nM under setting [3].

In the case of “VEGFR2-25-h4#: siRNA targeting VEGFR2 mRNA; sense SEQ ID 44, antisense SEQ ID 87 (sense CCCUUGAGUCCAAUCACACAAUUAA; antisense UUAAUUGUGUGAUUGGACUCAAGGG; RNA, backbone not given here)”, the EC50 runs as follows: under setting [1], 0.38 nM; under setting [2], 0.13 nM; under setting [3], 5.39 nM.

With “VEGFR2-25-h 4#mod: Modified (2′F, 2′OME, phosphorylation) siRNA targeting VEGFR2; sense SEQ ID 134, antisense SEQ ID 142 (sense mCmCmCmUmUmGmAmGmUmCmCmAfAfUfCmAmCmAmCmAmAmUmUmAmA; antisense {P}-mUfUmAmAmUmUmGmUmGmUmGmAmUfUmGmGmAmCmUmCmAmAmGmGmG)”, the EC50 reads like this: under setting [1], 0.21 nM; under setting [2], 0.35 nM; under setting [3], 34.6 nM.
